{"source": "patent US10435402B2", "about": "“Bicyclic compounds, compositions and medicinal applications thereof” (Advinus Therapeutics Limited, priority 2015, dated 2019)"}
{"biological_target": "T1, GAL4-DBD/RORγ-LBD (Homo sapiens, UniProt P51449)", "T1 construct": "expressed in transfected cells; host or cells: HEK293T", "T1 sequence (P51449 269-508 limits assumed)": "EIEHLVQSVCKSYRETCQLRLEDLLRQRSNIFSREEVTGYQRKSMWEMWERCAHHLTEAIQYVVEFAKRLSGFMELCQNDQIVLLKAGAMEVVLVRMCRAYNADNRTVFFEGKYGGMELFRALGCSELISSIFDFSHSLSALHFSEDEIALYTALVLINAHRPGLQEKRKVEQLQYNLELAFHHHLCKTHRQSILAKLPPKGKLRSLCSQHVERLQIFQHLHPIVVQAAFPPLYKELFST", "T1 sequence (P04386 1-147 partner limits assumed)": "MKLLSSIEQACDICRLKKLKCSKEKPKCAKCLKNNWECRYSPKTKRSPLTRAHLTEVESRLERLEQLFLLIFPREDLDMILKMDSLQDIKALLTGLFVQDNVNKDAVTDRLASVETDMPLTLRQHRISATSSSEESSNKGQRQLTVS", "assay": "RORγt transactivation reporter assay (GAL4-DBD/RORγ-LBD, luciferase read out)", "assay_type": "cell-based", "settings": "HEK293T cells, GAL4-UAS luciferase reporter, overnight (18-24 hours) incubation", "in_short": "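HEK293T cells were transiently co-transfected with GAL4-DBD/RORγt-LBD (SV40-Renilla transfection control) and a 9×GAL4-UAS firefly Luc2P reporter. Compounds (0.4% DMSO in the compound solution) were added 5 h post-transfection in FBS-free DMEM for 18–24 h at 37 °C. IC50 was taken from the normalised Dual-Glo luciferase signal.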", "units": {"IC50": "µM"}}
{"compound": "CN(C)C(=O)c1ccc2c(-c3ccc(C(=O)O)cc3)cc(C(=O)c3c(Cl)cccc3Cl)n2c1", "note": "[Example D-2, 4-[3-(2,6-dichlorobenzoyl)-6-(dimethylcarbamoyl)indolizin-1-yl]benzoic acid]", "IC50": "< 0.5"}
{"compound": "Cc1c(-c2ccc(C(=O)O)cc2F)c2ccccn2c1C(=O)c1c(Cl)cccc1C(F)(F)F", "note": "[Example C-6, 4-[3-[2-chloro-6-(trifluoromethyl)benzoyl]-2-methyl-indolizin-1-yl]-3-fluoro-benzoic acid]", "IC50": "< 0.5"}
{"compound": "CCOC(=O)c1ccc(-c2cc(C(=O)c3c(F)cccc3F)n3ccccc23)cc1", "note": "[Example A-36, ethyl 4-[3-(2,6-difluorobenzoyl)indolizin-1-yl]benzoate]", "IC50": "< 0.5"}
{"compound": "O=C(O)c1ccc(-c2c(F)c(C(=O)c3c(Cl)cccc3Cl)n3ccccc23)cc1", "note": "[Example B-2, 4-[3-(2,6-dichlorobenzoyl)-2-fluoro-indolizin-1-yl]benzoic acid]", "IC50": "< 0.5"}
{"compound": "O=C(O)c1ccc(-c2cc(C(=O)c3c(F)ccc(F)c3F)n3ccccc23)c(F)c1", "note": "[Example A-44, 3-fluoro-4-[3-(2,3,6-trifluorobenzoyl)indolizin-1-yl]benzoic acid]", "IC50": "< 0.5"}
{"compound": "COCCNC(=O)c1ccc2c(-c3ccc(C(=O)O)cc3)cc(C(=O)c3c(Cl)cccc3Cl)n2c1", "note": "[Example D-8, 4-[3-(2,6-dichlorobenzoyl)-6-(2-methoxyethylcarbamoyl)indolizin-1-yl]benzoic acid]", "IC50": "> 5"}
